Several values for one entry are separate records, joined by “and”; a condition that tells them apart may be missing. Equal entries are not always repeated.
What was measured:
[1] = tested on: Human alphaherpesvirus 1; experiment: Antiherpes (Type-1) activity in mouse paralysis model expressed as animals paralyzed treated/percent animals paralyzed control (% T/C); type: functional, herpes simplex virus
[2] = tested on: Human alphaherpesvirus 1; experiment: Average lesion score in hairless mouse model infected with HVH-1(antiherpes activity); type: functional, herpes simplex virus
[3] = tested on: Human alphaherpesvirus 1; experiment: Reduction of lesion (from control), in hairless mouse model infected with HVH-1(antiherpes activity); type: functional, herpes simplex virus; set-up: concentration or dose not given beside the values
[4] = organism: Mus musculus; experiment: Reduction of lesion severity, in hairless mice test against herpes type-2,at 5% dose in 1.4% aq.polyvinyl alcohol; type: functional
[5] = organism: Mus musculus; experiment: Average lesion score in hairless mouse test against Herpes type-1 at dose of 5% in 1.4% aq.polyvinyl alcohol; type: functional
[6] = tested on: Human alphaherpesvirus 1; experiment: Average lesion score in hairless mouse test against Herpes type-1 at dose of 0.75% in 1.4% aq.polyvinyl alcohol; type: functional, herpes simplex virus
[7] = organism: Mus musculus; experiment: Reduction of lesion severity, in hairless mouse test against herpes type-1,at 5% dose in 1.4% aq.polyvinyl alcohol; type: functional
[8] = tested on: Human alphaherpesvirus 1; experiment: Reduction of lesion severity, in hairless mouse test against herpes type-1,at 0.75% dose in 1.4% aq.polyvinyl alcohol; type: functional, herpes simplex virus
[9] = tested on: Human alphaherpesvirus 1; experiment: Reduction of lesion severity, in hairless mouse test against herpes type-1,at 3% dose in 1.4% aq.polyvinyl alcohol; type: functional, herpes simplex virus
[10] = tested on: Human alphaherpesvirus 1; experiment: Average lesion score in hairless mouse test against Herpes type-1 at dose of 3% in 1.4% aq.polyvinyl alcohol; type: functional, herpes simplex virus
[11] = organism: Mus musculus; experiment: Reduction of lesion severity, in hairless mouse test against herpes type-1,at 0.37% dose in 1.4% aq.polyvinyl alcohol; type: functional
[12] = organism: Mus musculus; experiment: Average lesion score in hairless mouse test against Herpes type-1 at dose of 1.5% in 1.4% aq.polyvinyl alcohol; type: functional
[13] = organism: Mus musculus; experiment: Average lesion score in hairless mouse test against Herpes type-1 at dose of 0.37% in 1.4% aq.polyvinyl alcohol; type: functional
[14] = organism: Mus musculus; experiment: Reduction of lesion severity, in hairless mouse test against herpes type-1,at 1.5% dose in 1.4% aq.polyvinyl alcohol; type: functional
[15] = organism: Mus musculus; experiment: Reduction of lesion severity, in hairless mice test against herpes type-2,at 2% dose in 1.4% aq.polyvinyl alcohol; type: functional
[16] = organism: Mus musculus; experiment: Reduction of lesion severity, in hairless mice test against herpes type-2,at 0.75% dose in 1.4% aq.polyvinyl alcohol; type: functional
[17] = organism: Mus musculus; experiment: Reduction of lesion severity, in hairless mice test against herpes type-2,at 1.5% dose in 1.4% aq.polyvinyl alcohol; type: functional
[18] = organism: Mus musculus; experiment: Reduction of lesion severity, in hairless mice test against herpes type-2,at 0.37% dose in 1.4% aq.polyvinyl alcohol; type: functional

SMILES	T/C [1]	Average lesion score [2]	Reduction [3] [%]	further results
Cl.N#Cc1ccc(/C=C/C(=O)CCN2CCOCC2)cc1	24%			
CN(C)CCC(=O)/C=C/c1ccccc1.Cl		1.8	30	
CC(C[N+](C)(C)C)C(=O)/C=C/c1ccccc1.[I-] (stereo not drawn)		0.33	89	
COc1ccc(/C=C/C(=O)CCN2CCOCC2)cc1.Cl	25%			
Cl.O=C(/C=C/c1ccc2c(c1)OCO2)CCN1CCOCC1	14%			
Cl.O=C(/C=C/c1cccc(C(F)(F)F)c1)CCN1CCOCC1	11%			
O=C(O)CP(=O)([O-])[O-].[Na+].[Na+] [DISODIUM CARBOXYMETHYLPHOSPHONATE]	24% and 61%	0.33	74	Reduction [4]: 78%; Average lesion score [5]: 0.33; Average lesion score [6]: 2.5; Reduction [7]: 87%; Reduction [8]: 9%; Reduction [9]: 69%; Average lesion score [10]: 0.83
COc1cccc(/C=C/C(=O)CCN2CCOCC2)c1.Cl	0%			
Cl.O=C(/C=C/c1ccc(Cl)c(Cl)c1)CCN1CCOCC1	0%			Reduction [11]: 67%; Average lesion score [12]: 0.5; Average lesion score [6]: 0.5; Average lesion score [13]: 0.83; Reduction [14]: 80%; Reduction [8]: 80%; Reduction [9]: 80%; Average lesion score [10]: 0.5
C[N+](C)(C)CCC(=O)/C=C/c1ccccc1.[I-]		1	64	Reduction [11]: 76%; Average lesion score [12]: 0.5; Average lesion score [6]: 0.67; Average lesion score [13]: 0.67; Reduction [14]: 82%; Reduction [8]: 76%; Reduction [9]: 88%; Average lesion score [10]: 0.33
Cl.O=C(/C=C/c1ccc(O)cc1)CCN1CCOCC1	63%			
Cl.O=C(/C=C/c1cccc([N+](=O)[O-])c1)CCN1CCOCC1	47%			
CC(C)(C[N+](C)(C)C)C(=O)/C=C/c1ccccc1.[I-]		2.33	13	
O=C(/C=C/c1ccccc1)CCSc1ccccc1		2.5	10	
C[S+](C)CCC(=O)/C=C/c1ccccc1.[I-]		0.5	82	Reduction [11]: 76%; Average lesion score [12]: 0.5; Average lesion score [6]: 0.67; Average lesion score [13]: 0.67; Reduction [14]: 82%; Reduction [8]: 76%; Reduction [9]: 88%; Average lesion score [10]: 0.33
Cl.O=C(/C=C/c1ccccc1)CCN1CCOCC1	11%	0.17	94	Reduction [11]: 67%; Reduction [15]: 85%; Average lesion score [12]: 0.55; Average lesion score [6]: 0.83; Average lesion score [13]: 0.83; Reduction [16]: 78%; Reduction [17]: 78%; Reduction [14]: 80%; Reduction [8]: 67%; Reduction [18]: 70%; Reduction [9]: 87%; Average lesion score [10]: 0.33
O=C(CCc1ccc(Cl)c(Cl)c1)CCN1CCOCC1	50%			
CS(=O)(=O)c1ccc(/C=C/C(=O)CCN2CCOCC2)cc1.Cl	12%			
Cl.O=C(/C=C/c1ccc(Cl)cc1)CCN1CCOCC1	12%			
O=C(/C=C/c1ccccc1)CCNc1ccccc1		2.67	9	
Cc1ccc(/C=C/C(=O)CCN2CCOCC2)cc1.Cl	38%			
CSc1ccc(/C=C/C(=O)CCN2CCOCC2)cc1.Cl	12%			
CCC[S+](C)CCC(=O)/C=C/c1ccccc1.[I-] (stereo not drawn)		0.67	74	
CCCSCCC(=O)/C=C/c1ccccc1		2.8	0	
CCOP(=O)(CCC(=O)/C=C/c1ccccc1)OCC		2.3	10	
COc1cccc(/C=C/C(=O)CC[N+](C)(C)C)c1.[I-]		0.33	86	
C[S+]([O-])CCC(=O)/C=C/c1ccccc1 (stereo not drawn)		1.3	48	
Cl.O=C(/C=C/c1c(Cl)cccc1Cl)CCN1CCOCC1	14%			
Cl.OC(/C=C/c1ccccc1)CCN1CCOCC1 (stereo not drawn)	88%			

Source: ChEMBL document CHEMBL1122349, “Mannich bases of 4-phenyl-3-buten-2-one: a new class of antiherpes agent” (1983)
